Results: patent US20210137951A1, “DRUG COMBINATION FOR TREATMENT OF AMYOTROPHIC LATERAL SCLEROSIS, PREPARATION METHOD AND USE THEREOF” (priority 2018, published 2021)

Legend:
[1] = system: hSOD1-G93A transgenic mice; type: in vivo; conditions: for Effect on delaying the progression of amyotrophic lateral sclerosis (in words): judged from fall time and mice surviving more than 120 days; for Falling time (s) On 1st day of gavage / Falling time (s) On 7th day of gavage / Falling time (s) On 14th day of gavage / Falling time (s) On 21th day of gavage / Falling time (s) On 28th day of gavage: intragastric once a day, 40 mg/kg (positive control 2 mg/kg), rod 12 r/min, cut-off 10 min; for Falling time (s) On 1st day of gavage: 1 h after 1st administration; for Falling time (s) On 7th day of gavage: 1 h after 7th administration; for Falling time (s) On 14th day of gavage: 1 h after 14th administration; for Falling time (s) On 21th day of gavage: 1 h after 21st administration; for Falling time (s) On 28th day of gavage: 1 h after 28th administration
Method: (§1) 10 two-months wild-type BALB/C mice were used as the normal control group, and 110 two-months hSOD1-G93A transgenic mice were randomly divided into 11 groups, 10 mice for each group, and 11 groups are blank group, positive control group, the drug compositions 1-3 of the present invention groups, and the control 1-6 groups, respectively.
All mice were adaptively fed for three weeks, and a rotating rod experiment was performed once a week. The diameter of the rotating rod was 3.5 cm, and its rotating speed was 12 r/min. Experiment on each mouse was carried out three times in parallel, with a 5 min interval. The longest time recorded was the fall time of mice, the mice with a fall time of shorter than 7 min in the third rotating rod experiment were excluded, and then mice received drugs by intragastric administration, in which the normal control group and the blank group were given physiological saline, while the positive control group, the drug combinations 1-3 groups, and the control groups 1-6 were given corresponding drugs, with the volume of 0.5 ml. Amongst, the gavage dose of positive control group was 2 mg/kg body weight, and the gavage dose of drug combinations 1-3 and controls 1-6 groups was both 40 mg/kg body weight. For all of groups, drugs were given once a day for 4 weeks. After 1 h of the 1st, 7th, 14th, 21st, and 28th intragastric administrations, a stick-rotation experiment was performed. In one experiment, each mouse was tested 3 times at interval of 5 minutes, and the longest time recorded was the fall time of mice. […] After the 28th gavage, the mice were continually fed, and the number of mice surviving for more than 120 days in each group was recorded, in which if they were placed in the supine position, the mice could not turn to the prone position within 30 S, and thus they were determined as dead.

[2] = system: hSOD1-G93A transgenic mice; test: Number of mice surviving more than 120 days; type: in vivo; conditions: intragastric once a day for 4 weeks, 40 mg/kg (positive control 2 mg/kg), 8-9 mice per group
Method: as §1
All mice were adaptively fed for three weeks, and a rotating rod experiment was performed once a week. The diameter of the rotating rod was 3.5 cm, and its rotating speed was 12 r/min. Experiment on each mouse was carried out three times in parallel, with a 5 min interval. The longest time recorded was the fall time of mice, the mice with a fall time of shorter than 7 min in the third rotating rod experiment were excluded, and then mice received drugs by intragastric administration, in which the normal control group and the blank group were given physiological saline, while the positive control group, the drug combinations 1-3 groups, and the control groups 1-6 were given corresponding drugs, with the volume of 0.5 ml. Amongst, the gavage dose of positive control group was 2 mg/kg body weight, and the gavage dose of drug combinations 1-3 and controls 1-6 groups was both 40 mg/kg body weight. […] In one experiment, each mouse was tested 3 times at interval of 5 minutes, and the longest time recorded was the fall time of mice. […]

Compound	Indexes for the fall time and the number of mice surviving more than 120 days, comparison between groups (in words) ([1]; gavage 4 weeks)	Effect on delaying the progression of amyotrophic lateral sclerosis (in words) ([1]; gavage 4 weeks)	Falling time (s) On 1st day of gavage [1] [s]	Falling time (s) On 7th day of gavage [1] [s]	Falling time (s) On 14th day of gavage [1] [s]	Falling time (s) On 21th day of gavage [1] [s]	Falling time (s) On 28th day of gavage [1] [s]	Survival numbers (number of mice surviving for more than 120 days) [2]
creatine phosphate sodium [Control 6]	roughly equivalent to those in the blank group	don't have obvious effect on delaying the progression of this disease	475.8 ± 22.8	284.6 ± 19.3	155.8 ± 24.8	71.3 ± 12.3	44.78 ± 11.3	2
Nc1nc2ccc(OC(F)(F)F)cc2s1 [Positive control, Riluzole]	–	–	479.2 ± 31.8	389.5 ± 27.7	259.3 ± 29.5	187.4 ± 17.5	129.3 ± 15.4	–
O=C(/C=C/c1ccc(O)c(O)c1)O[C@@H]1C[C@](O)(C(=O)O)C[C@@H](O)[C@H]1O [Control 1, 3-O-caffeoylquinic acid]	–	showed to some extent the effect on delaying the progression of amyotrophic lateral sclerosis	468.9 ± 26.1	315.3 ± 27.6	221.5 ± 22.8	127.8 ± 19.5	89.1 ± 18.5	3
